target: T1, human TRPM8 (Homo sapiens, UniProt Q7Z2W7); test: Luminescence readout assay for measuring intracellular calcium, icilin activation; type: cell-based; settings: CHO cells expressing human TRPM8, aequorin luminescence, 1 μM icilin activation; read-out: hTRPM8 IC50
T1 construct: expressed in transfected cells; host or cells: Chinese hamster ovary (CHO) cells, T-REx tetracycline-inducible system, co-transfected with aequorin
In short: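 The read-out was luminescence reporting intracellular calcium, recorded by a CCD-based luminometer. Compounds were preincubated for 2.5 min before agonist challenge with 1 μM icilin. Human TRPM8 was expressed in a stable T-REx CHO line, induced with 0.5 μg/mL tetracycline the day before.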

T1 sequence (Q7Z2W7 whole entry): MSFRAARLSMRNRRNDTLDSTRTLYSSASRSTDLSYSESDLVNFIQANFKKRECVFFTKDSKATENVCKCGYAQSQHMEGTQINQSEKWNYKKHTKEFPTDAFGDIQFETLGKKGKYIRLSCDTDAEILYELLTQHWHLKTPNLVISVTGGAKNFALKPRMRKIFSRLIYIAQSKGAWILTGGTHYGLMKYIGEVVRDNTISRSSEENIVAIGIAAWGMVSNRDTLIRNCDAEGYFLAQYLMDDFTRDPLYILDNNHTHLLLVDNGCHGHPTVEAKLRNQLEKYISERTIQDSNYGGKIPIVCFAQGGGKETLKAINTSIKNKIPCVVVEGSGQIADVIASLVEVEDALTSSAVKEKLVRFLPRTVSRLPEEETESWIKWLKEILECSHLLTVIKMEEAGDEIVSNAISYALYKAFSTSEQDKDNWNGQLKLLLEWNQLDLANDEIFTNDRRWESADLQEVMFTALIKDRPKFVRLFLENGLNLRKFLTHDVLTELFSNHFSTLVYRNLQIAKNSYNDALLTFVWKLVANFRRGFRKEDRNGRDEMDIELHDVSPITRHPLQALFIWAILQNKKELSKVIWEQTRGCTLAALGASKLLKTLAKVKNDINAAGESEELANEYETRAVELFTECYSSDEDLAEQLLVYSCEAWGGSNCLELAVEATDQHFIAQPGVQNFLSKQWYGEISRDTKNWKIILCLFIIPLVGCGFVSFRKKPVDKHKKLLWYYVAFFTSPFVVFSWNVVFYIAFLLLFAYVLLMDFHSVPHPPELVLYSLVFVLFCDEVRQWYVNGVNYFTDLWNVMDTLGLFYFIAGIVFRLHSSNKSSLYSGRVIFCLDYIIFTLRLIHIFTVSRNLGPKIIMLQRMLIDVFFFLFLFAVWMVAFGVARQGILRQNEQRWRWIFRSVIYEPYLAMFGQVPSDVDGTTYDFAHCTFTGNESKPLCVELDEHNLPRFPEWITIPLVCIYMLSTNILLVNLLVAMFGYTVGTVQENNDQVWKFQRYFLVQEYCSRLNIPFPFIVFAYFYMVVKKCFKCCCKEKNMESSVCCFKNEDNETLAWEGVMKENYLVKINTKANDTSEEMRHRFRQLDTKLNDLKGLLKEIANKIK

Row | Structure (SMILES) | IC50
1 | COc1ccc([C@H](NC(=O)c2ccc(=O)[nH]c2)c2ncccc2F)cc1 [Example 342, (S)-N-((3-fluoropyridin-2-yl)(4-methoxyphenyl)methyl)-6-oxo-1,6-dihydropyridine-3-carboxamide] | 255 nM
2 | Cn1cc(C(=O)N[C@@H](c2ccc(Cl)c(F)c2)c2ncccc2F)ccc1=O [Example 345, (S)-N-((4-chloro-3-fluorophenyl)(3-fluoropyridin-2-yl)methyl)-1-methyl-6-oxo-1,6-dihydropyridine-3-carboxamide] | 102 nM
3 | O=C1Cc2cc(C(=O)N[C@@H](c3ccc(OC(F)(F)F)c(F)c3)c3ncccc3F)ccc2N1 [Example 346, (S)-N-((3-fluoro-4-(trifluoromethoxy)phenyl)(3-fluoropyridin-2-yl)methyl)-2-oxoindoline-5-carboxamide] | 11.1 nM
4 | O=C(N[C@@H](c1ccc(OC(F)(F)F)c(F)c1)c1ncccc1F)c1ccc(=O)[nH]n1 [Example 349, (S)-N-((3-fluoro-4-(trifluoromethoxy)phenyl)(3-fluoropyridin-2-yl)methyl)-6-oxo-1,6-dihydropyridazine-3-carboxamide] | 15.6 nM
5 | O=C1CCc2cc(C(=O)N[C@@H](c3ccc(OC(F)(F)F)c(F)c3)c3ncccc3F)ccc2N1 [Example 351, (S)-N-((3-fluoro-4-(trifluoromethoxy)phenyl)(3-fluoropyridin-2-yl)methyl)-2-oxo-1,2,3,4-tetrahydroquinoline-6-carboxamide] | 15.9 nM
6 | O=C1CCc2cc(C(=O)N[C@@H](c3ccc(OC(F)(F)F)cc3)c3ncccc3F)ccc2N1 [Example 352, (S)-N-((3-fluoropyridin-2-yl)(4-(trifluoromethoxy)phenyl)methyl)-2-oxo-1,2,3,4-tetrahydroquinoline-6-carboxamide] | 18.8 nM
7 | O=C(N[C@@H](c1ccc(OC(F)(F)F)c(F)c1)c1ncccc1F)c1c[nH]c(=O)cn1 [Example 353, (S)-N-((3-fluoro-4-(trifluoromethoxy)phenyl)(3-fluoropyridin-2-yl)methyl)-5-oxo-4,5-dihydropyrazine-2-carboxamide] | 27.7 nM
8 | O=C(N[C@@H](c1ccc(OC(F)(F)F)c(F)c1)c1ncccc1F)c1cc2n(n1)CCCO2 [Example 355, (S)-N-((3-fluoro-4-(trifluoromethoxy)phenyl)(3-fluoropyridin-2-yl)methyl)-6,7-dihydro-5H-pyrazolo[5,1-b][1,3]oxazine-2-carboxamide] | 38.5 nM
9 | Cc1cccnc1[C@@H](NC(=O)c1ccc(=O)[nH]c1)c1ccc(OC(F)(F)F)cc1 [Example 359, (S)-N-((3-methylpyridin-2-yl)(4-(trifluoromethoxy)phenyl)methyl)-6-oxo-1,6-dihydropyridine-3-carboxamide] | 13.6 nM
10 | CCn1cc(C(=O)N[C@@H](c2ccc(C(F)(F)F)cc2)c2ncccc2F)ccc1=O [Example 364, (S)-1-ethyl-N-((3-fluoropyridin-2-yl)(4-(trifluoromethyl)phenyl)methyl)-6-oxo-1,6-dihydropyridine-3-carboxamide] | 15.8 nM

Continued by falling IC50, values first:

Row | IC50 | Structure (SMILES)
11 | 1480 nM | COc1ccc([C@H](NC(=O)c2ccc(=O)n(C)c2)c2ncccc2F)cc1 [Example 343, (S)-N-((3-fluoropyridin-2-yl)(4-methoxyphenyl)methyl)-1-methyl-6-oxo-1,6-dihydropyridine-3-carboxamide]
12 | 78.4 nM | O=C(N[C@@H](c1ccc(OC(F)(F)F)cc1)c1ncccc1F)c1cc2n(n1)CCCO2 [Example 356, (S)-N-((3-fluoropyridin-2-yl)(4-(trifluoromethoxy)phenyl)methyl)-6,7-dihydro-5H-pyrazolo[5,1-b][1,3]oxazine-2-carboxamide]
13 | 68.3 nM | CC(C)n1cc(C(=O)N[C@@H](c2ccc(C(F)(F)F)cc2)c2ncccc2F)ccc1=O [Example 367, (S)-N-((3-fluoropyridin-2-yl)(4-(trifluoromethyl)phenyl)methyl)-1-isopropyl-6-oxo-1,6-dihydropyridine-3-carboxamide]
14 | 68.1 nM | O=C(N[C@@H](c1ccc(OC(F)(F)F)cc1)c1ncccc1F)c1c[nH]c(=O)cn1 [Example 354, (S)-N-((3-fluoropyridin-2-yl)(4-(trifluoromethoxy)phenyl)methyl)-5-oxo-4,5-dihydropyrazine-2-carboxamide]
15 | 46.6 nM | Cc1cccnc1[C@@H](NC(=O)c1ccc2c(c1)OCC(=O)N2)c1ccc(OC(F)(F)F)c(F)c1 [Example 357, (S)-N-((3-fluoro-4-(trifluoromethoxy)phenyl)(3-methylpyridin-2-yl)methyl)-3-oxo-3,4-dihydro-2H-benzo[b][1,4]oxazine-7-carboxamide]
16 | 45.1 nM | O=C(N[C@@H](c1ccc(Cl)c(F)c1)c1ncccc1F)c1ccc(=O)[nH]c1 [Example 344, (S)-N-((4-chloro-3-fluorophenyl)(3-fluoropyridin-2-yl)methyl)-6-oxo-1,6-dihydropyridine-3-carboxamide]
17 | 40.1 nM | CCn1cc(C(=O)N[C@@H](c2ccc(Cl)c(Cl)c2)c2ncccc2F)ccc1=O [Example 365, (S)-N-((3,4-dichlorophenyl)(3-fluoropyridin-2-yl)methyl)-1-ethyl-6-oxo-1,6-dihydropyridine-3-carboxamide]
18 | 29.5 nM | C=Cc1cccnc1[C@@H](NC(=O)c1ccc(=O)[nH]c1)c1ccc(C(F)(F)F)cc1 [Example 363, (S)-6-oxo-N-((4-(trifluoromethyl)phenyl)(3-vinylpyridin-2-yl)methyl)-1,6-dihydropyridine-3-carboxamide]
19 | 22.7 nM | O=C(N[C@@H](c1ccc(OC(F)(F)F)cc1)c1ncccc1F)c1ccc(=O)[nH]n1 [Example 350, (S)-N-((3-fluoropyridin-2-yl)(4-(trifluoromethoxy)phenyl)methyl)-6-oxo-1,6-dihydropyridazine-3-carboxamide]
20 | 20 nM | Cc1cccnc1[C@@H](NC(=O)c1ccc(=O)n(C)c1)c1ccc(OC(F)(F)F)cc1 [Example 360, (S)-1-methyl-N-((3-methylpyridin-2-yl)(4-(trifluoromethoxy)phenyl)methyl)-6-oxo-1,6-dihydropyridine-3-carboxamide]
21 | 14.1 nM | Cc1cccnc1[C@@H](NC(=O)c1ccc2oc(=O)[nH]c2c1)c1ccc(OC(F)(F)F)c(F)c1 [Example 358, (S)-N-((3-fluoro-4-(trifluoromethoxy)phenyl)(3-methylpyridin-2-yl)methyl)-2-oxo-2,3-dihydrobenzo[d]oxazole-5-carboxamide]
22 | 10 nM | Cc1cccnc1[C@@H](NC(=O)c1ccc(=O)[nH]c1)c1ccc(OC(F)(F)F)c(F)c1 [Example 347, (S)-N-((3-fluoro-4-(trifluoromethoxy)phenyl)(3-methylpyridin-2-yl)methyl)-6-oxo-1,6-dihydropyridine-3-carboxamide]
23 | 9.7 nM | CCn1cc(C(=O)N[C@@H](c2ccc(OC(F)(F)F)c(F)c2)c2ncccc2F)ccc1=O [Example 366, (S)-1-ethyl-N-((3-fluoro-4-(trifluoromethoxy)phenyl)(3-fluoropyridin-2-yl)methyl)-6-oxo-1,6-dihydropyridine-3-carboxamide]
24 | 5.8 nM | O=C(N[C@@H](c1ccc(C(F)(F)F)cc1)c1ccccn1)c1ccc2oc(=O)[nH]c2c1 [Example 361, (S)-2-oxo-N-(pyridin-2-yl(4-(trifluoromethyl)phenyl)methyl)-2,3-dihydrobenzo[d]oxazole-5-carboxamide]

— US8710043B2, “TRPM8 antagonists and their use in treatments” (Amgen Inc., priority 2011, dated 2014)
